# Values of other authors, collected in patent publication EP0594592B1, “A GROWTH FACTOR IN […] ARTIFICIAL TRANSPLANTS” (Strid, Lars, priority 1990, dated 1997).
# Columns and labels:
# blood platelets = settings: result in words
# thromboxane = settings: result in words
# [1] = test system: macrophages, monocytes, mast cells and capillary endothelial cells; settings: result in words
# [2] = on a molar basis
substance,measurement,setting,value
copper complex of the tripeptide glycyl-L-histidyl-L-lysine [GHK-Cu^2+],aggregation of blood platelets,blood platelets,inhibits
same,effect on the hormone thromboxane,thromboxane,inhibits
same,chemoattractive effect on cells necessary for wound-healing,[1],chemoattractive effect
same,"superoxide dismutase-like activity, rate constant relative to enzymatic Cu,Zn-superoxide dismutase",[2],about 25%
same,fibroblasts synthesis of collagen,"fibroblasts; at 10^-9M, result in words",almost doubles
same,increase in collagen synthesis,"fibroblasts; cultures of fibroblasts, at 10^-9M",about 80%
same,peptide concentration at which stimulation of collagen synthesis is observed (as low as),"fibroblasts; cultures of fibroblasts, lowest concentration with stimulation",10^-12 M
same,peptide concentration of maximum stimulation of collagen synthesis,"fibroblasts; cultures of fibroblasts, maximal activity",10^-9 M
